Holding throughout (type): cell-based
Series [1] has as its target T1, N-formyl peptide receptor 2 (Homo sapiens) (UniProt P25090).
T1 sequence (whole entry): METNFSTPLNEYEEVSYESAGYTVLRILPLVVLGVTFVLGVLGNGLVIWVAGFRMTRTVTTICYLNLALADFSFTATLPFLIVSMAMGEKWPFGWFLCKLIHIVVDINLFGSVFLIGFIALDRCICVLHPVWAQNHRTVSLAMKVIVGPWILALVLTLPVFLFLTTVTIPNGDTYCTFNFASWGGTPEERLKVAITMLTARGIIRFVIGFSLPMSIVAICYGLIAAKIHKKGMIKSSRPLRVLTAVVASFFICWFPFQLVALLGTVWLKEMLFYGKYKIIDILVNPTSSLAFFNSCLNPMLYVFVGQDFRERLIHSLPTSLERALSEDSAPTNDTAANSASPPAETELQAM
The series is described as follows: Agonist activity at ALX/FPR2 in human THP1 cells harboring NF-kB-Luc assessed as inhibition of LPS-induced NFkB signalling activation by measuring NF-kB activation level at 10^-11 M pretreated for 30 mins followed by LPS stimulation for 24 hrs by luciferase reporter gene assay. Details: scale not given: the % may be the effect or the level left.

In series [2] the target is T1, N-formyl peptide receptor 2 (Homo sapiens). The series is described as follows: Agonist activity at ALX/FPR2 in human THP1 cells harboring NF-kB-Luc assessed as inhibition of LPS-induced NFkB signalling activation by measuring NF-kB activation level at 10^-10 M pretreated for 30 mins followed by LPS stimulation for 24 hrs by luciferase reporter gene assay. Further details: scale not given: the % may be the effect or the level left.

Series [3] has the same target. The series is described as follows: Agonist activity at ALX/FPR2 in human THP1 cells harboring NF-kB-Luc assessed as inhibition of LPS-induced NFkB signalling activation by measuring NF-kB activation level at 10^-9 M pretreated for 30 mins followed by LPS stimulation for 24 hrs by luciferase reporter gene assay. Further details: scale not given: the % may be the effect or the level left.

The target is the same in series [4]. The series is described as follows: Agonist activity at ALX/FPR2 in human THP1 cells harboring NF-kB-Luc assessed as inhibition of LPS-induced NFkB signalling activation by measuring NF-kB activation level at 10^-7 M pretreated for 30 mins followed by LPS stimulation for 24 hrs by luciferase reporter gene assay. Details: scale not given: the % may be the effect or the level left.

Series [5] has the same target. The series is described as follows: Agonist activity at ALX/FPR2 in human THP1 cells harboring NF-kB-Luc assessed as inhibition of LPS-induced NFkB signalling activation by measuring NF-kB activation level at 10^-6 M pretreated for 30 mins followed by LPS stimulation for 24 hrs by luciferase reporter gene assay. Details: scale not given: the % may be the effect or the level left.

Series [6] has the same target. Put plainly: Agonist activity at ALX/FPR2 in human THP1 cells harboring NF-kB-Luc assessed as inhibition of LPS-induced NFkB signalling activation by measuring IL-1beta secretion at 10^-7 M pretreated for 30 mins followed by LPS stimulation for 24 hrs by electrochemiluminescence assay. Details: scale not given: the % may be the effect or the level left.
Series [7] has the same target. The series is described as follows: Agonist activity at ALX/FPR2 in human THP1 cells harboring NF-kB-Luc assessed as inhibition of LPS-induced NFkB signalling activation by measuring IL-6 secretion at 10^-9 M pretreated for 30 mins followed by LPS stimulation for 24 hrs by electrochemiluminescence assay. Details: scale not given: the % may be the effect or the level left.

Series [8] has the same target. The series is described as follows: Agonist activity at ALX/FPR2 in human THP1 cells harboring NF-kB-Luc assessed as inhibition of LPS-induced NFkB signalling activation by measuring IL-6 secretion at 10^-7 M pretreated for 30 mins followed by LPS stimulation for 24 hrs by electrochemiluminescence assay. Details: scale not given: the % may be the effect or the level left.

Series [9] has the same target. The series is described as follows: Agonist activity at ALX/FPR2 in human THP1 cells harboring NF-kB-Luc assessed as inhibition of LPS-induced NFkB signalling activation by measuring IL-12p70 secretion at 10^-11 M pretreated for 30 mins followed by LPS stimulation for 24 hrs by electrochemiluminescence assay. Details: scale not given: the % may be the effect or the level left.

For series [10] the target is unchanged. The series is described as follows: Agonist activity at ALX/FPR2 in human THP1 cells harboring NF-kB-Luc assessed as inhibition of LPS-induced NFkB signalling activation by measuring IL-12p70 secretion at 10^-9 M pretreated for 30 mins followed by LPS stimulation for 24 hrs by electrochemiluminescence assay. Further details: scale not given: the % may be the effect or the level left.

Series [11] shares this target. The series is described as follows: Agonist activity at ALX/FPR2 in human THP1 cells harboring NF-kB-Luc assessed as inhibition of LPS-induced NFkB signalling activation by measuring IL-12p70 secretion at 10^-7 M pretreated for 30 mins followed by LPS stimulation for 24 hrs by electrochemiluminescence assay. Details: scale not given: the % may be the effect or the level left.

The target is the same in series [12]. The series is described as follows: Agonist activity at ALX/FPR2 in human THP1 cells harboring NF-kB-Luc assessed as inhibition of LPS-induced NFkB signalling activation by measuring IFNgamma secretion at 10^-9 M pretreated for 30 mins followed by LPS stimulation for 24 hrs by electrochemiluminescence assay. Details: scale not given: the % may be the effect or the level left.

Series [13] shares this target. The series is described as follows: Agonist activity at ALX/FPR2 in human THP1 cells harboring NF-kB-Luc assessed as inhibition of LPS-induced NFkB signalling activation by measuring IFNgamma secretion at 10^-7 M pretreated for 30 mins followed by LPS stimulation for 24 hrs by electrochemiluminescence assay. Details: scale not given: the % may be the effect or the level left.

Series [14] has the same target. The series is described as follows: Agonist activity at ALX/FPR2 in human THP1 cells harboring NF-kB-Luc assessed as inhibition of LPS-induced NFkB signalling activation by measuring TNFalpha secretion at 10^-11 M pretreated for 30 mins followed by LPS stimulation for 24 hrs by electrochemiluminescence assay. Further details: scale not given: the % may be the effect or the level left.

The target is the same in series [15]. The series is described as follows: Agonist activity at ALX/FPR2 in human THP1 cells harboring NF-kB-Luc assessed as inhibition of LPS-induced NFkB signalling activation by measuring TNFalpha secretion at 10^-9 M pretreated for 30 mins followed by LPS stimulation for 24 hrs by electrochemiluminescence assay. Further details: scale not given: the % may be the effect or the level left.

Series [16] shares this target. Put plainly: Agonist activity at ALX/FPR2 in human THP1 cells harboring NF-kB-Luc assessed as inhibition of LPS-induced NFkB signalling activation by measuring TNFalpha secretion at 10^-7 M pretreated for 30 mins followed by LPS stimulation for 24 hrs by electrochemiluminescence assay. Details: scale not given: the % may be the effect or the level left.
Series [17] is described as follows: Cytotoxicity against mouse J774.1 cells assessed as cell viability by MTS assay relative to control. To be noted: read-out: Activity.
Series [18] concerns the target T2, N-formyl peptide receptor 2 (Homo sapiens, UniProt P25090).
T2 sequence (P25090 whole entry): T1 sequence (whole entry)
Put plainly: Agonist activity at ALX/FPR2 in human THP1 cells harboring NF-kB-Luc assessed as inhibition of LPS-induced NFkB signalling activation pretreated for 30 mins followed by LPS stimulation for 24 hrs by luciferase reporter gene assay.

Series [19] has as its target T2, N-formyl peptide receptor 2. The series is described as follows: Agonist activity at ALX/FPR2 in human THP1 cells harboring NF-kB-Luc assessed as inhibition of LPS-induced NFkB signalling activation by measuring reduction in IL-12p70 secretion pretreated for 30 mins followed by LPS stimulation for 24 hrs by electrochemiluminescence assay. To be noted: read-out: IC50.

For series [20] the target is unchanged. Put plainly: Agonist activity at ALX/FPR2 in human THP1 cells harboring NF-kB-Luc assessed as inhibition of LPS-induced NFkB signalling activation by measuring reduction in TNFalpha secretion pretreated for 30 mins followed by LPS stimulation for 24 hrs by electrochemiluminescence assay. To be noted: read-out: IC50.
The target is the same in series [21]. The series is described as follows: Agonist activity at ALX/FPR2 in human THP1 cells harboring NF-kB-Luc assessed as inhibition of LPS-induced NFkB signalling activation by measuring reduction in IL-1beta secretion pretreated for 30 mins followed by LPS stimulation for 24 hrs by electrochemiluminescence assay. To be noted: read-out: IC50.

On to `CCCCC[C@@H](O)c1nc(-c2ccccc2)n(-c2ccccc2)c1/C=C/[C@@H](O)[C@@H](O)CCCC(=O)OC`, for which the Activity in [1] turned out to be 94.3%; in series [2], 91.2%; in series [3] it was 85.2%; in [4], 88.2%; in [5], 88.5%; in series [6], 57.7%. Besides, the Activity in [7] was 64.4%; in [8] it was 83.7%; in series [9], 67.7%; in [10] it was 68.3%; in series [11] it was 86.2%; in series [12], 71.4%. Moreover, the Activity is 95% in series [13], 61.5% in series [14], 68.6% in [15] and 78.1% in series [16]. In [17], the viability lay in the range of 95 to 100%. Besides, the IC50 in series [18] came to 26.2 nM; in series [19] it was 10 nM; in [20], 7.1 nM; in series [21] it was 1.4 nM.

Regarding `CCCCC[C@H](O)c1nc(-c2ccccc2)n(-c2ccccc2)c1/C=C/[C@@H](O)[C@@H](O)CCCC(=O)OC`, the Activity in series [1] stood at 83.4%; in [2], 79.7%; in series [3], 80.3%; in series [4], 82.2%; in [5] it was 90.2%; in [6], 67.4%. The Activity was 77.3% in series [7]; 64.9% in series [8]; 65.1% in [9]; 61.4% in series [10]; 138% in series [11]; 68.4% in [12]. For the same compound, the Activity in [13] stood at 129%; in series [14], 69.3%; in [15], 80.9%; in series [16] it was 86.8%. For the same compound, the viability in [17] was in the range of 95 to 100%. The half-inhibitory concentration (IC50) amounted to 32.4 nM in series [18], 1 nM in series [19], 4.1 nM in series [20] and 1 nM in [21].

In the case of `CCCCC[C@H](O)/C=C/C=C\C=C\C=C\[C@@H](O)[C@@H](O)CCCC(=O)O` [LIPOXIN A4], the Activity in series [1] was 95.5%; in [2] it was 85.6%; in [3], 84.2%; in series [4] it was 76%; in [5], 93.3%; in series [6] it was 5.7%. In addition, the Activity is 1.1% in series [7]; 1.7% in [8]; 25.7% in series [9]; 37.1% in series [10]; 29.6% in series [11]; 36.1% in [12]. The Activity in series [13] was determined as 32%; in series [14], 19.6%; in [15], 16.9%; in series [16], 29.5%. The viability in [17] is 95 to 100%. In addition, the 50% inhibitory concentration (IC50) in [18] came to 26.3 nM; in series [19], 11.8 nM; in series [20], 7.7 nM; in [21] it was 1.8 nM.
